Measurements from patent US5919755A, “Medical use of heme products” (Leiras OY, priority 1995, dated 1999).
Where “and” joins values, the source holds several entries; their conditions need not be identical. Equal values may be shown once. Read-outs that look alike come from different tables or passages of the source.

Assays:
[1] = cited from earlier work
[2] = cited from earlier work; remark: listed apart in the source
[3] = system: polychromatic erythrocytes; assay: Mouse micronucleus assay (micronucleated polychromatic erythrocytes in bone marrow smears); type: in vivo, mouse (CD-1 outbred, Swiss origin); conditions: for Incidence: number of micronucleated polychromatic erythrocytes per 1000 polychromatic erythrocytes examined: 36 mg/kg i.v.
Description: 1. Mouse micronucleus assay
Micronuclei are seen in a variety of cells, but erythrocytes are chosen for examination since micronuclei are easily detected in this cell type.
A few hours after the last mitosis is completed, erythroblasts expel their nucleus. Young erythrocytes stain blue with Giemsa due to the presence of ribonucleic acid, which gradually disappears so that more mature erythrocytes stain pink with Giemsa. The young blue-staining cells are known as polychromatic erythrocytes and micronuclei are readily detected in this cell type.
The test animals were specific pathogen free CD-1 outbred mice of Swiss origin weighing between 22 and 24 grams and approximately 40 days old during the study. The mice were acclimatized for four days and after that dosed by intravenous injection with a volume of 10 ml/kg body weight either with saline solution (vehicle control) or with heme arginate solution at the dose 36 mg hemin/kg body weight. Five male and five female mice were sacrificed by cervical dislocation 24, 48, and 72 hours after dosing. A direct bone marrow smear was made from femur onto a slide containing a drop of calf serum. The smears were fixed in methanol, air dried, and stained for 10 minutes in 10% Giemsa solution. The stained smears were examined (under code) by light microscopy to determine the incidence of micronucleated cells per 1000 polychromatic erythrocytes per animal.

blasts in bone marrow = assay: Proportion of blasts in the bone marrow of myelodysplastic patients; type: in vivo, human; conditions: for Blasts in bone marrow, after / Myeloblasts in bone marrow, after / Sum of blasts and myeloblasts in bone marrow, after: one week after last of 15 infusions, 3 mg hemin/kg i.v.; for Myelodysplastic syndrome subtype, after: after treatment
Protocol: 2. Proportion of blasts in the bone marrow of myelodysplastic patients
In a clinical study patients with myelodysplastic syndromes were treated with intravenous infusions of heme arginate at the dose level 3 mg hemin/kg. The infusions were given first on four consecutive days and after that once a week for eleven weeks. Thus totally 15 infusions were given to each patient.
Bone marrow sample was collected from each patient before start of the heme arginate infusions and one week after the last infusion. Proportion of blasts and myeloblasts were determined in the bone marrow samples by using standard hematological laboratory procedures. The definition of "a blast" as used in the classification of myelodysplastic syndromes includes both blasts and myeloblasts (9).

[4] = system: human erythroid precursors; assay: Induction of production of fetal hemoglobin in vitro (two-phase liquid culture, HPLC); type: cell-based
Description: Cells grown in phase II in the presence of the indicated concentrations of heme arginate, were harvested on day 13 and their hemoglobin quantitated.
Cells grown in phase II in the presence of the indicated concentrations of heme arginate, were harvested on day 13 and their hemoglobin chromatographed and quantitated.
Cells grown in phase II in the absence or presence of heme arginate from day 0 and with the indicated concentrations of hydroxyurea from day 5, were harvested on day 13 and their hemoglobin chromatographed and quantitated.
3. Induction of production of fetal hemoglobin in vitro
Peripheral blood mononuclear cells obtained from normal volunteers and either sickle cell anemia or β-thalassemia patients were isolated by centrifugation on a gradient of Ficoll-Hypaque and seeded at a density of 5×10^6 cells/ml in alpha-minimal essential medium supplemented with 10% fetal calf serum (FCS), 1 μg/ml cyclosporin A, and 10% conditioned medium collected from cultures of the 5637 bladder-carcinoma cell line. The cultures were incubated at +37° C. in an atmosphere of 5% CO2 in air with extra humidity.
Following 7-day incubation in this phase I culture, the non-adherent cells were harvested, washed, and recultured in fresh medium composed of alpha-medium, 30% FCS, 1% deionized bovine serum albumin, 1×10^-5 M β-mercaptoethanol, 1.5 mM glutamine, 1×10^-6 M dexamethasone, and 1 U/ml human recombinant erythropoietin. Hemoglobin containing cells were determined by using the benzidine-HCl procedure.
The effect of heme arginate on fetal hemoglobin (Hb-F) production was determined by growing human erythroid precursors in the second phase of the above described liquide cell culture in the presence of 1 U/ml erythropoietin and different concentrations of heme arginate. The combination effect of heme arginate and hydroxyurea was investigated with 100 μM heme arginate added on day 0 and various concentrations of hydroxyurea added on day 5. Cells were harvested on day 13 and lysed, and their total hemoglobin and Hb-F content was analyzed by cation-exchange HPLC.

myelodysplastic syndrome [5] = conditions: cited from earlier work
myelodysplastic syndrome [6] = conditions: cited from earlier work; remark: listed apart in the source
[7] = humans, intravenous dose of 3 mg/kg; cited from earlier work
[8] = rat, intravenous dose of 3 mg/kg; cited from earlier work
plasma proteins = conditions: after infusion into the blood stream; cited from earlier work
[9] = system: myelodysplastic syndromes; conditions: part of MDS patients; cited from earlier work
[10] = Table 3, one line per patient, baseline before treatment
[11] = Table 4, patients not considered good responders, one line per patient, baseline before treatment
[12] = Table 4, patients not considered good responders, one line per patient
[13] = of 26 patients, 2-3 mg hemin/kg

For `C=CC1=C(C)c2cc3[n-]c(cc4[n-]c(cc5nc(cc1n2)C(C)=C5C=C)c(C)c4CCC(=O)O)c(CCC(=O)O)c3C.O.[Fe+2]` [hematin], which adverse effects ([1]; in vivo, iv) is on record?
Its adverse effects is “often complicated by adverse effects, including phlebitis at the infusion site and disturbances in hemostasis”.

Which solubility [2] does the source give for Hemin here?
The solubility was “poorly soluble”.

For heme arginate, which “Incidence: number of micronucleated polychromatic erythrocytes per 1000 polychromatic erythrocytes examined” value ([3]; killed 24 hours after dosing, vehicle control 1.2) is on record?
The value was 1.1 per 1000 polychromatic erythrocytes.

What about the “Incidence: number of micronucleated polychromatic erythrocytes per 1000 polychromatic erythrocytes examined” value ([3]; killed 48 hours after dosing, vehicle control 1.0) of the same compound?
The value was 0.5 per 1000 polychromatic erythrocytes.

What about the “Incidence: number of micronucleated polychromatic erythrocytes per 1000 polychromatic erythrocytes examined” value ([3]; killed 72 hours after dosing, vehicle control 1.0) of the same compound?
Its value is 0.4 per 1000 polychromatic erythrocytes.

What about the “effect on incidence of mutagenesis (mouse micronucleus test)” value ([3]; in vivo, 36 mg/kg) of the same compound?
The value was “able to decrease incidence of mutagenesis”.

What about the “Blasts in bone marrow, before” value (blasts in bone marrow; Table 3, RAEB or RAEB-t patients, one line per patient, baseline before treatment) of the same compound?
Its value is 4% and 3% and 6% and 15% and 10%.

What about the “Blasts in bone marrow, after” value (blasts in bone marrow; Table 3, RAEB or RAEB-t patients, one line per patient) of the same compound?
Its value is 0% and 1% and 4% and 6%.

What about the “Myelodysplastic syndrome subtype, after” value (blasts in bone marrow; Table 3, one line per patient) of the same compound?
The value was “RARS and RAEB”.

What about the “Myeloblasts in bone marrow, before” value (blasts in bone marrow; [10]) of the same compound?
Its value is 6% and 8% and 4% and 3% and 20%.

And the “Myelodysplastic syndrome subtype, before” value (blasts in bone marrow; [10])?
Its value is “RAEB and RAEB-t”.

What about the “Myeloblasts in bone marrow, after” value (blasts in bone marrow; Table 3, one line per patient) of the same compound?
Its value is 4% and 3%.

And the “Sum of blasts and myeloblasts in bone marrow, after” value (blasts in bone marrow; Table 3 and text, one line per patient)?
The value was 4% and 8% and 10%.

And the “patients with a clear decrease of blasts” value (blasts in bone marrow; Table 3 patients, of 21)?
The value was 5/21.

What about the “Blasts in bone marrow, before” value (blasts in bone marrow; Table 4, RARS or RAEB patients not considered good responders, one line per patient, baseline before treatment) of the same compound?
Its value is 5 and 8 and 2 and 3 and 1 and 4 and 0.

And the “Myelodysplastic syndrome subtype, after” value (blasts in bone marrow; Table 4, one line per patient)?
The value was “RAEB and RARS”.

What about the “Myelodysplastic syndrome subtype, before” value (blasts in bone marrow; Table 4, one line per patient, baseline before treatment) of the same compound?
The value was “RAEB and RARS”.

What about the “Myeloblasts in bone marrow, before” value (blasts in bone marrow; [11]) of the same compound?
The value was 4 and 2 and 8 and 9 and 3 and 10 and 5 and 1.

What about the “Sum of blasts and myeloblasts in bone marrow, before” value (blasts in bone marrow; [11]) of the same compound?
The value was 9 and 12 and 4 and 5 and 7 and 14 and 13 and 3 and 1 and 10.

And the “Blasts in bone marrow, after” value (blasts in bone marrow; [12])?
The value was 5 and 8 and 0 and 2 and 3 and 1 and 4.

And the “Myeloblasts in bone marrow, after” value (blasts in bone marrow; [12])?
Its value is 3 and 2 and 1 and 7 and 6 and 10 and 9 and 5 and 0.

What about the “Sum of blasts and myeloblasts in bone marrow, after” value (blasts in bone marrow; [12]) of the same compound?
Its value is 8 and 11 and 2 and 3 and 7 and 13 and 4 and 12 and 6 and 1 and 9.

And the “patients with a smaller decrease of blasts” value (blasts in bone marrow; Table 4 patients, of 21)?
Its value is 12/21.

And the “patients with no effect on blasts” value (blasts in bone marrow; Table 4 patients, of 21)?
The value was 1/21.

And the “patients with slight increase of blasts” value (blasts in bone marrow; Table 4 patients, of 21)?
Its value is 3/21.

And the “patients with some decrease of blasts, totally” value (blasts in bone marrow; all patients, of 21)?
Its value is 17/21.

And the “effect on proportion of blasts in bone marrow” value (blasts in bone marrow; some MDS patients)?
The value was “able to decrease proportion of blasts”.

And the “amount of total hemoglobin produced” value ([4]; FIG. 1, phase II culture, harvested day 13, erythroid precursors from patients with hemoglobinopathies)?
The value was “increases the amount of total hemoglobin”.

What about the “proportion of fetal hemoglobin (Hb-F)” value ([4]; FIG. 2, phase II culture, harvested day 13, heme arginate alone) of the same compound?
The value was “increases the proportion of fetal hemoglobin”.

What about the “effect of heme arginate on proportion of fetal hemoglobin (Hb-F) in presence of hydroxyurea” value ([4]; FIG. 3, heme arginate 100 μM from day 0, hydroxyurea 25-200 μM from day 5, harvested day 13) of the same compound?
Its value is “potentiated by the presence of hydroxyurea”.

And the “patients with MDS progression” value (myelodysplastic syndrome [5]; of 26 patients (13))?
The value was 4/26.

What about the “patients showing improvement in cytopenias during the therapy” value (myelodysplastic syndrome [5]; [13]) of the same compound?
Its value is “Six”.

And the “patients with long-lasting good response with normal or close to normal blood cell counts” value (myelodysplastic syndrome [5]; [13])?
The value was “three”.

And the “duration of long-lasting good response” value (myelodysplastic syndrome [5]; single patients, 2-3 mg hemin/kg)?
Its value is > 11 months and > 12 months and 25 months.

And the “patients with MDS progression” value (myelodysplastic syndrome [6]; of 14 patients (15))?
The value was 4/14.

What about the “patients with decrease of blasts” value (myelodysplastic syndrome [6]; of 14 patients (15), considered to be an occasional event) of the same compound?
Its value is 1/14.

And the “patients with long-lasting improvement in hemoglobin values and/or platelet counts” value (myelodysplastic syndrome [6]; of 14 patients, 3 mg hemin/kg)?
Its value is “Three”.

What about the “duration of long-lasting improvement in hemoglobin values and/or platelet counts” value (myelodysplastic syndrome [6]; single patients, 3 mg hemin/kg) of the same compound?
The value was 5 months and 26 months and > 41 months.

And the AUC [7]?
Its AUC is 998 µg/mL/h.

What about the AUC [8] of the same compound?
The AUC was 64 µg/mL/h.

And the plasma protein binding (plasma proteins)?
Its plasma protein binding is “quickly bound to the plasma proteins in monomeric form”.

What about the “effect on blood cell counts” value [9] of the same compound?
Its value is “clinically effective in part of MDS patients by increasing the blood cell counts”.

And the solubility [2]?
Its solubility is “increases the aqueous solubility”.

What about the adverse effects ([1]; intravenous use, incl. phlebitis at infusion site and disturbances in hemostasis) of the same compound?
Its adverse effects is “lack of serious adverse effects”.

What about the adverse effects ([1]; intravenous use, incl. phlebitis at infusion site and disturbances in hemostasis, listed as Heme arginate) of the same compound?
The adverse effects was “seldom produces these effects and therefore is better tolerated”.
